Measurements from patent US8592421B2, “Cyclic bioisosters of purine system derivatives and a pharmaceutical composition based thereon” (priority 2003, dated 2013).
Marks after values point to notes of the source that are not given here.

Columns and labels:
plasma hemostasis [1] = assay: Thrombin time after intravenous administration; format: in vivo, rabbit
Protocol: (§1) The investigations were performed on 72 rabbits of the “Chinchilla” breed with a mass of 2.5±0.3 kg, who were administered which solutions of compounds 2, 15, 21, 37 in doses of 15, 30 and 60 mg/kg intravenously. The experiments included the thrombin-test (series No. 7300) and the coagulability-test (series No. 5000) purchased from the scientific-and-production association (SPA) “Renam”, thromboplastin (series No. 240600) and calcium chloride purchased from the SPA “MedioLab”
(§2) The static parameters of the blood and plasma coagulation (partial activated thromboplastin time, thrombin time, maximum coagulation activity (test for auto coagulation) were determined using the Behnk Electronic coagulometer (Germany). The operating principle of this instrument is based on the fact that the formed blood clot breaks the contacts of the pulse counter in the flask-pin circuit, said pin permanently oscillating in a vertical plane. The moment of formation of the clot is registered by stopping the stop watch hand.
(§3) The measurements were effected at a constant temperature of 37° C. maintained by a temperature control unit.
The “thrombin time” characterizes the rate of transformation of fibrinogen into fibrin. It was determined by measuring the coagulation time of plasma deprived of thrombocytes under the effect of thrombin standardized by the control plasma.
0.2 ml of a thrombin solution was added to 0.2 ml of the test blood plasma of experimental animals, from whom the blood was taken 15, 30, 60 and 120 minutes after the intravenous administration of compounds 2, 15, 21, 37 according to the invention in doses of 15, 30, 60 mg/kg incubated for 1 minute at a temperature of 37° C. and the time of formation of clot T2 in seconds in a coagulometer of the Behnk Electronic Company (Germany).

[2] = Morphine abstinence model: nitrites/nitrates NOX− in blood plasma, liver and brain; format: in vivo, rats Wistar; settings: 20.0 mg/kg intramuscularly; for Nitrites in liver: control 0.260 ± 0.023; for Nitrites in brain: Cortex of cerebrum: control 4.63 ± 0.29; for Nitrites in brain: Mesencephalon: control 5.66 ± 0.19; for Nitrites in brain: Hypothalamus: control 6.57 ± 0.50; for Nitrites in blood plasma: control 18.30 ± 2.14
Protocol: The experiments were carried out on rats in series of 7 animals on each compound according to the invention. Non-morphinized animal with not administered with compounds according to the invention were used as a control group. […] Then the rats were decapitated, the blood from somnolent arteries was collected in test tubes with solution EDTA as an anticoagulant, centrifuged at 1500 g for 15 minutes at 4° C.
To estimate the intensity of metabolism of nitrogen oxide in rats, quantitative determination of stable metabolites of nitrogen oxide—nitrites and nitrates NOX^− in the blood plasma, supernatanates of the liver and thymus gland, a study was conducted by a spectrometric method, and in the brain supernatanates by a […] method.
The spectrometric method is based the reaction of nitrites with the Griss reagent (a mixture of 2% solution of sulfanilamide and 0.2% N-(1-naphthyl)ethylene diamine. At the first step the nitrite reacts with sulfanilamide with formation of diazonium salt, and then with the second component to form azo dye with an adsorption maximum at 540 nm. For reduction of nitrates into nitrites, a fermentative method was used with bacterial reductase nitrate (Grisham M. B. et al., 1995). The samples of plasma and supernathant of the liver deproteinizated at 100° C. for 5 minutes incubated for 30 minutes at 37° C. in 50.0 mM of HEPES pH 7.4 in the presence of 0.2 unit/ml of Aspergillus reductase nitrate, 5.0 mkM of FAD and 0.1 mM of NAD-Ph. At the end of the reaction lactate dehydrogenase and pyruvate were added for isolation of NAD-Ph interfering with the Griss reaction. Then the Griss reagent was added and after 10-minute incubation the light absorption of the samples was measured at 540 nm. To amount of NOX^− was calculated using sodium nitrate as a standard.
The fluorometric method is based on calculation of the nitrite level by the intensity fluorescence of 2,3-diaminonaphthotriazole, a product of reaction of 2,3-diaminonaphthalene (DAN) and nitrite in an acidic medium (Misko T. R., Schilling R. J., Salvemini D. et al. “A fluorometric assay for the measurement of nitrite of biological samples”. Anal. Biochem., 1993, v. 214, p. 11-16). The brain supernatants deproteinizated at 100° C. were placed in a nitrite regenerating system containing 0.125 unit/ml of nitrate reductases, 25 mkM NADPh and 25 mkM FAD prepared in a 20-mM Tris-HCl buffer with pH 7.6 and incubated for 30 minutes at 37° C. The lactate dehydrogenase/pyruvate system was used for oxidation of the NADPh. Then 316 mkM of the DAN solution in 0.62 M of hydrochloric acids were added and the mixture was incubated for 10 minutes in darkness.
280 mM of NaOH were added for stabilization of the fluorescence of the formed 2,3-diaminonaphthotriazole. The fluorescence intensity was measured in the spectrofluorimeter Hitachi F-3000 at a wavelength of excitation of 365 nm and an emission of 405 nm. The concentration of NOX^− in the brain was calculated by means of a standard solution of sodium nitrate.

plasma hemostasis [3] = assay: Autocoagulation test (coagulating activity A) after intravenous administration; format: in vivo, rabbit
Protocol: as §1, §2, §3
Compounds 2, 15, 21, 37 according to the invention at a concentration of 15, 30 and 60 mg/kg were intravenously administered to the above experimental animals and their blood samples were taken off 15, 30, 60 and 120 minutes after the administration.
Added to 0.2 ml of plasma obtained by centrifuging citrate blood at 1500 rev/min within 10 minutes was a glycosylate-calcium mixture (2.0 ml 0.222% CaCl2+0.1 ml of investigated citrate blood) 4, 6, 8, 10 minutes after the preparation of this mixture and the time of coagulation in the sample was determined.
The obtained results in seconds were translated in factors of coagulating activity A in percent, which specify the state of both the coagulating and anticoagulating parts of the blood coagulating system. The results of the experiments are given in Table 7. • The effect of the compounds according to the invention on the values of coagulating activity A by the data of autocoagulation test with intravenous administration of the compounds to the rabbits

In the case of Nc1cccc2c(=O)[nH][nH]c(=O)c12.[Na] [Compound 15, sodium salt of 5-amino-benzo[d]-3H-pyridazine-1,4-dione], the “thrombin time, T2” value (plasma hemostasis [1]; 15.0 mg/kg intravenously, after 15 minutes, control 15.8) is reported as 17.0* s, the “thrombin time, T2” value (plasma hemostasis [1]; 15.0 mg/kg intravenously, after 30 minutes, control 15.8) is reported as 18.5* s and the “thrombin time, T2” value (plasma hemostasis [1]; 15.0 mg/kg intravenously, after 60 minutes, control 15.8) is reported as 16.5* s. The “thrombin time, T2” value (plasma hemostasis [1]; 15.0 mg/kg intravenously, after 120 minutes, control 15.8) was 15.5* s, the “thrombin time, T2” value (plasma hemostasis [1]; 30.0 mg/kg intravenously, after 15 minutes, control 14.7) was 19.7* s and the “thrombin time, T2” value (plasma hemostasis [1]; 30.0 mg/kg intravenously, after 30 minutes, control 14.7) was 20.5* s. The “thrombin time, T2” value (plasma hemostasis [1]; 30.0 mg/kg intravenously, after 60 minutes, control 14.7) was 21.3* s, the “thrombin time, T2” value (plasma hemostasis [1]; 30.0 mg/kg intravenously, after 120 minutes, control 14.7) was 15.0* s and the “thrombin time, T2” value (plasma hemostasis [1]; 60.0 mg/kg intravenously, after 15 minutes, control 15.2) was 16.8* s. For the same compound, the “thrombin time, T2” value (plasma hemostasis [1]; 60.0 mg/kg intravenously, after 30 minutes, control 15.2) was 18.0* s, the “thrombin time, T2” value (plasma hemostasis [1]; 60.0 mg/kg intravenously, after 60 minutes, control 15.2) was 16.5* s and the “thrombin time, T2” value (plasma hemostasis [1]; 60.0 mg/kg intravenously, after 120 minutes, control 15.2) was 14.7* s. The Nitrites in liver ([2]; Control + Compound) was 0.259 ± 0.019 nmol/mg of protein, the “Nitrites in brain: Cortex of cerebrum” value ([2]; Control + Compound) was 4.31 ± 0.37 nmol/mg of protein and the “Nitrites in brain: Mesencephalon” value ([2]; Control + Compound) was 6.65 ± 0.70 nmol/mg of protein. For the same compound, the “Nitrites in brain: Hypothalamus” value ([2]; Control + Compound) was 6.77 ± 0.83 nmol/mg of protein, the “Nitrites in blood plasma” value ([2]; Control + Compound) was 14.39 ± 0.84 mkmol/ml and the Nitrites in liver ([2]; Control + Morphine + compound) was 0.285 ± 0.02 nmol/mg of protein. For the same compound, the “Nitrites in brain: Cortex of cerebrum” value ([2]; Control + Morphine + compound) was 4.72 ± 0.37 nmol/mg of protein, the “Nitrites in brain: Mesencephalon” value ([2]; Control + Morphine + compound) was 5.50 ± 0.43 nmol/mg of protein and the “Nitrites in brain: Hypothalamus” value ([2]; Control + Morphine + compound) was 6.57 ± 0.88 nmol/mg of protein. The “Nitrites in blood plasma” value ([2]; Control + Morphine + compound) was 13.91 ± 1.91 mkmol/ml, the “coagulating activity A (autocoagulation test)” value (plasma hemostasis [3]; 15.0 mg/kg intravenously, after 15 minutes, control 85.6) was 82.3% and the “coagulating activity A (autocoagulation test)” value (plasma hemostasis [3]; 15.0 mg/kg intravenously, after 30 minutes, control 85.6) was 103.0%. The “coagulating activity A (autocoagulation test)” value (plasma hemostasis [3]; 15.0 mg/kg intravenously, after 60 minutes, control 85.6) was 89.0%, the “coagulating activity A (autocoagulation test)” value (plasma hemostasis [3]; 15.0 mg/kg intravenously, after 120 minutes, control 85.6) was 101.2% and the “coagulating activity A (autocoagulation test)” value (plasma hemostasis [3]; 30.0 mg/kg intravenously, after 15 minutes, control 70.0) was 100.3%. For the same compound, the “coagulating activity A (autocoagulation test)” value (plasma hemostasis [3]; 30.0 mg/kg intravenously, after 30 minutes, control 70.0) was 68.4%, the “coagulating activity A (autocoagulation test)” value (plasma hemostasis [3]; 30.0 mg/kg intravenously, after 60 minutes, control 70.0) was 106.6% and the “coagulating activity A (autocoagulation test)” value (plasma hemostasis [3]; 30.0 mg/kg intravenously, after 120 minutes, control 70.0) was 70.6%. For the same compound, the “coagulating activity A (autocoagulation test)” value (plasma hemostasis [3]; 60.0 mg/kg intravenously, after 15 minutes, control 65.9) was 74.4%, the “coagulating activity A (autocoagulation test)” value (plasma hemostasis [3]; 60.0 mg/kg intravenously, after 30 minutes, control 65.9) was 63.2% and the “coagulating activity A (autocoagulation test)” value (plasma hemostasis [3]; 60.0 mg/kg intravenously, after 60 minutes, control 65.9) was 64.4%. For the same compound, the “coagulating activity A (autocoagulation test)” value (plasma hemostasis [3]; 60.0 mg/kg intravenously, after 120 minutes, control 65.9) was 66.5% and the “effect on the coagulation activity according to the autocoagulation test” value (plasma hemostasis [3]; doses 15.0, 30.0, 60.0 mg/kg) was “have no effect on the coagulation activity”.
